Consider 15 compounds from patent US6340694B1, “Diarylbenzopyran derivatives as cyclooxygenase-2 inhibitors” (Pacific Corporation, priority 1998, dated 2002).

In one assay the target is T1, COX-2 (Mus musculus, UniProt Q05769).
T1 construct: endogenous in cells; host or cells: peritoneal macrophages of C57BL/6 mouse, aspirin-pretreated, LPS-induced
T1 sequence (Q05769 18-604): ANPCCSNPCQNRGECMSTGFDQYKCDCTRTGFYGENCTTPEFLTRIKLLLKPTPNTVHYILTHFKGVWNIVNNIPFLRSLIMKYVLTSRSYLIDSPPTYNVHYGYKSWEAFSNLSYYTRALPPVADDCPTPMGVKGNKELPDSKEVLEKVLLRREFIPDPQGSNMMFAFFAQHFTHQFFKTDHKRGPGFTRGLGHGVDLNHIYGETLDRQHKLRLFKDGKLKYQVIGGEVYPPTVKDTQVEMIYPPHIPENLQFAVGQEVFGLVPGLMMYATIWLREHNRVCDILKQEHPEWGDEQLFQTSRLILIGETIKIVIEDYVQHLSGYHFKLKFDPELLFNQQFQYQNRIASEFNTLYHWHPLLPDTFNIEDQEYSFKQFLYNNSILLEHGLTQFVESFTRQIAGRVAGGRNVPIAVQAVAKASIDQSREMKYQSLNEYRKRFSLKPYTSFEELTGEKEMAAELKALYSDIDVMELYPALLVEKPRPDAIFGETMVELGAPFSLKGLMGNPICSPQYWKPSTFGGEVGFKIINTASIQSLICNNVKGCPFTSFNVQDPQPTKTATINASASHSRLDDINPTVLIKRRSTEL
In words: Evaluation of COX-2's inhibition efficacy (PGE2 radioimmuno assay, LPS-induced, aspirin-pretreated peritoneal macrophages). Type of assay: cell-based, C57BL/6 mouse. On the procedure:
Regarding the compounds in the above Examples and indomethacin, the inhibition efficacy of COX-2 and COX-1 are being measured by the following two methods. […] Evaluation of COX-2's Inhibition Efficacy (J. Pharmacol. Exp. […] After cleaning C57BL/6 mouse's abdomen by 70% EtOH, the skin of mouse's abdomen was eliminated cautiously not to harm peritomeum and 5 ml of cold PBS was poured into the abdominal cavity and in certain times later macrophage-bleeding abdominal-liquid was collected by syringe. […] After putting 1 ml cell suspension having cell number of 1×10^6 cells/mu into each 24-well microtiter plates, macrophages were adhered to the bottom of plate by culturing in the condition of 5% CO2/95% O2, at a temperature of 37° C. for 2 hours. Other cells not being adhered to were eliminated by washing two times with PBS. The purity of macrophages obtained through this process was identified by differential counting. […] After inducing COX-2 by LPS, the cell culture medium was eliminated and macrophages was washed two times with PBS. And 1 ml of RRPI-1640 badge was added to each well again and after treating them with sample with appropriate concentration, they were cultured at a temperature of 37i É for 10 minutes. And then treated them with arachidonic acid to make their final concentration as 10 μM and cultured them additional 10 minutes, all the supernatant liquid of reaction was obtained. The amount of PGE2 produced in the supernatant liquid of reaction was determined by the PGE2 radioimmuno assay.

For the next assay, the target named is T2, COX-1 (Mus musculus, UniProt P22437).
T2 construct: there is no pre-treatment of aspirin and LPS in the adhesion of macrophage; endogenous in cells; host or cells: peritoneal macrophages of C57BL/6 mouse, without aspirin and LPS pre-treatment
T2 sequence (P22437 27-602): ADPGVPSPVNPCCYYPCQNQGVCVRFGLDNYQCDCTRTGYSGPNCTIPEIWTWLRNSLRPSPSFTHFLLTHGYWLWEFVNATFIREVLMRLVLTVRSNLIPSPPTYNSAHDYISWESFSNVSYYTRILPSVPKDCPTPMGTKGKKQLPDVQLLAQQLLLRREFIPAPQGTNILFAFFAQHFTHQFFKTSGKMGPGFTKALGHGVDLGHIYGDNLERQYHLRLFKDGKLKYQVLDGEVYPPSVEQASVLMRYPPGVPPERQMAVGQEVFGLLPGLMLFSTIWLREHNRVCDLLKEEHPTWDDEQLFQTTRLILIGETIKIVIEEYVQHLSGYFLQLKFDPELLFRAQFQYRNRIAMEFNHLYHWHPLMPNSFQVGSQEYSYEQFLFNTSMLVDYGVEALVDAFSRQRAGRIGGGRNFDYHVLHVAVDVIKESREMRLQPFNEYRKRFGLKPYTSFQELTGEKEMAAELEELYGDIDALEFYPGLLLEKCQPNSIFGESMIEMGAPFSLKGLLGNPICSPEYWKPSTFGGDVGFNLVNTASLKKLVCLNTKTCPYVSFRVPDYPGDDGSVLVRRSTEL
In words: Evaluation of COX-1's inhibition efficacy (macrophages without aspirin and LPS pre-treatment). Type of assay: cell-based, C57BL/6 mouse. On the procedure:
Regarding the compounds in the above Examples and indomethacin, the inhibition efficacy of COX-2 and COX-1 are being measured by the following two methods.
After cleaning C57BL/6 mouse's abdomen by 70% EtOH, the skin of mouse's abdomen was eliminated cautiously not to harm peritomeum and 5 ml of cold PBS was poured into the abdominal cavity and in certain times later macrophage-bleeding abdominal-liquid was collected by syringe. By adding RPMI-1640 badge containing penicillin(100 unit/mt) and streptomycin([…]) to cell pellet obtained by centrifugation of collected liquid about 5 minutes in 1500 rpm, it was disperesed and also COX-1 existing in the cell was inactivated by treating with 500 μM aspirin. After putting 1 ml cell suspension having cell number of 1×10^6 cells/mu into each 24-well microtiter plates, macrophages were adhered to the bottom of plate by culturing in the condition of 5% CO2/95% O2, at a temperature of 37° C. for 2 hours. Other cells not being adhered to were eliminated by washing two times with PBS. The purity of macrophages obtained through this process was identified by differential counting. After adding RPMI-1640 badge(normally 5×10^5 cell/ml) containing 3% right fetal blood serum to macrophage and treating it with LPS(lipopolysaccharide) to make final concentration as 10 μg/ml, it was cultured in the condition of 5% CO2, at a temperature of 37° C. for 16 hours. After inducing COX-2 by LPS, the cell culture medium was eliminated and macrophages was washed two times with PBS. And 1 ml of RRPI-1640 badge was added to each well again and after treating them with sample with appropriate concentration, they were cultured at a temperature of 37i É for 10 minutes. And then treated them with arachidonic acid to make their final concentration as 10 μM and cultured them additional 10 minutes, all the supernatant liquid of reaction was obtained. The amount of PGE2 produced in the supernatant liquid of reaction was determined by the PGE2 radioimmuno assay. The 100% COX-2's activation is referenced by the difference of the amount of PGE2 produced in the supernatant liquid of reaction between with 10 μM arachidonic acid treatment and without 10 μM arachidonic acid treatment.
2. Evaluation of COX-1's Inhibition Efficacy
Following the same procedure as the above evaluation of COX-2's inhibition efficacy, but there is no pre-treatment of aspirin and LPS in the adhesion of macrophage.

Structures are written as SMILES.

In the case of `NS(=O)(=O)c1ccc(-c2oc3ccccc3c(=S)c2-c2ccc(F)cc2)cc1` [Example 69, 2-(4-(Aminosulfonyl)phenyl)-3-(4-fluorophenyl)-4H-1-benzopyran-4-thione], on COX-2 (0.1 μg/ml), the inhibition at 0.1 µg/mL was found to be 42%. For the same compound, the inhibition at 1 µg/mL on COX-2 (1 μg/ml) is 98%; on COX-1 (1 μg/ml) it was 68%. Moreover, the results for the inhibition at 10 µg/mL at COX-2 (10 μg/ml) and on COX-1 (10 μg/ml) were 100% and 90%, respectively.
`NS(=O)(=O)c1ccc(-c2oc3cc(F)ccc3c(=O)c2-c2cccc(F)c2)cc1` [Example 61, 2-(4-(Aminosulfonyl)phenyl)-7-fluoro-3-(3-fluorophenyl)-4H-1-benzopyran-4-one]: the inhibition at 0.1 µg/mL at COX-2 (0.1 μg/ml) is 69%. The figures for the inhibition at 1 µg/mL at COX-2 (1 μg/ml) and on COX-1 (1 μg/ml) were 97% and 22%, respectively. For the same compound, the inhibition at 10 µg/mL on COX-1 (10 μg/ml) worked out at 38%.
Turning to `NS(=O)(=O)c1ccc(-c2oc3ccc(F)cc3c(=O)c2-c2ccccc2)cc1` [Example 47, 2-(4-(Aminosulfonyl)phenyl)-6-fluoro-3-phenyl-4H-1-benzopyran-4-one], the inhibition at 0.1 µg/mL at COX-2 (0.1 μg/ml) was 23%. Besides, the inhibition at 1 µg/mL on COX-2 (1 μg/ml) was found to be 86%.
On to `NS(=O)(=O)c1ccc(-c2oc3c(Cl)ccc(O)c3c(=O)c2-c2ccc(F)cc2)cc1` [Example 66, 2-(4-(Aminosulfonyl)phenyl)-8-chloro-3-(4-fluorophenyl)-5-hydroxy-4H-1-benzopyran-4-one], for which the inhibition at 1 µg/mL on COX-2 (1 μg/ml) worked out at 83%; at COX-1 (1 μg/ml), 40%. In addition, the inhibition at 10 µg/mL on COX-2 (10 μg/ml) came to 90%; at COX-1 (10 μg/ml), 80%.
Consider `COc1ccc2c(=O)c(-c3ccc(F)cc3)c(-c3ccc(S(N)(=O)=O)cc3)oc2c1` [Example 64, 2-(4-(Aminosulfonyl)phenyl)-7-methoxy-3-(4-fluorophenyl)-4H-1-benzopyran-4-one], for which the inhibition at 0.1 µg/mL on COX-2 (0.1 μg/ml) is below 5%. Also, at COX-2 (1 μg/ml), the inhibition at 1 µg/mL was 52%. The inhibition at 10 µg/mL at COX-2 (10 μg/ml) came out at 47%.
Take `NS(=O)(=O)c1ccc(-c2oc3cc(F)ccc3c(=O)c2-c2ccc(F)cc2)cc1` [Example 59, 2-(4-(Aminosulfonyl)phenyl)-7-fluoro-3-(4-fluorophenyl)-4H-1-benzopyran-4-one]: the inhibition at 0.1 µg/mL at COX-2 (0.1 μg/ml) came out at 39%. In addition, the inhibition at 1 µg/mL at COX-2 (1 μg/ml) is 100%.
Turning to `COc1ccc(Cl)c2oc(-c3ccc(S(N)(=O)=O)cc3)c(-c3ccc(F)cc3)c(=O)c12` [Example 65, 2-(4-(Aminosulfonyl)phenyl)-8-chloro-3-(4-fluorophenyl)-5-methoxy-4H-1-benzopyran-4-one], the results for the inhibition at 1 µg/mL on COX-2 (1 μg/ml) and at COX-1 (1 μg/ml) were 67% and 24%, respectively. The inhibition at 10 µg/mL on COX-2 (10 μg/ml) was determined as 93%; at COX-1 (10 μg/ml) it was 73%.
As for `Cc1cccc(-c2c(-c3ccc(S(C)(=O)=O)cc3)oc3ccccc3c2=O)c1` [Example 22, 3-(3-Methylphenyl)-2-(4-(methylsulfonyl)phenyl)-4H-1-benzopyran-4-one], the inhibition at 0.1 µg/mL at COX-2 (0.1 μg/ml) came to 14%. At COX-2 (1 μg/ml), the inhibition at 1 µg/mL came out at 82%. The inhibition at 10 µg/mL on COX-2 (10 μg/ml) is 90%.
As to `CS(=O)(=O)c1ccc(-c2oc3ccccc3c(=O)c2-c2ccccn2)cc1` [Example 33, 2-(4-(Methylsulfonyl)phenyl)-3-(2-pyridinyl)-4H-1-benzopyran-4-one], the inhibition at 1 µg/mL on COX-2 (1 μg/ml) is 27%. The inhibition at 10 µg/mL on COX-2 (10 μg/ml) was 44%; on COX-1 (10 μg/ml), 17%.
Consider `CS(=O)(=O)c1ccc(-c2oc3ccccc3c(=O)c2-c2cccc(Cl)c2)cc1` [Example 24, 3-(3-Chlorophenyl)-2-(4-(methylsulfonyl)phenyl)-4H-1-benzopyran-4-one], for which the inhibition at 0.1 µg/mL at COX-2 (0.1 μg/ml) was determined as 22%. For the same compound, the inhibition at 1 µg/mL on COX-2 (1 μg/ml) was determined as 86%. In addition, at COX-2 (10 μg/ml), the inhibition at 10 µg/mL was 95%.
For `NS(=O)(=O)c1ccc(-c2oc3cc(F)ccc3c(=O)c2-c2ccccc2F)cc1` [Example 60, 2-(4-(Aminosulfonyl)phenyl)-7-fluoro-3-(2-fluorophenyl)-4H-1-benzopyran-4-one], at COX-2 (0.1 μg/ml), the inhibition at 0.1 µg/mL stood at 43%. For the same compound, the inhibition at 1 µg/mL on COX-2 (1 μg/ml) was 100%.
Consider `CS(=O)(=O)c1ccc(-c2oc3ccccc3c(=O)c2-c2cccc(Cl)c2Cl)cc1` [Example 14, 3-(2,3-Dichlorophenyl)-2-(4-(methylsulfonyl)phenyl)-4H-1-benzopyran-4-one], for which, at COX-2 (0.1 μg/ml), the inhibition at 0.1 µg/mL worked out at 18%. Besides, the inhibition at 1 µg/mL at COX-2 (1 μg/ml) is 32%. The inhibition at 10 µg/mL at COX-2 (10 μg/ml) came to 71%.
In the case of `NS(=O)(=O)c1ccc(-c2oc3ccccc3c(=O)c2-c2ccc3c(c2)OCO3)cc1` [Example 54, 2-(4-(Aminosulfonyl)phenyl)-3-((3,4-methylenedioxy)phenyl)-4H-1-benzopyran-4-one], the “Inhibition (%) COX-2” value at COX-2 (0.1 μg/ml) is given as 20%; at COX-2 (1 μg/ml), 84%. The “Inhibition (%) COX-1” value on COX-1 (10 μg/ml) was 75%.
As to `CSc1ccc(-c2c(-c3ccc(S(N)(=O)=O)cc3)oc3ccccc3c2=O)cc1` [Example 56, 2-(4-(Aminosulfonyl)phenyl)-3-((4-methylthio)phenyl)-4H-1-benzopyran-4-one], the “Inhibition (%) COX-2” value at COX-2 (0.1 μg/ml) came out at 53%; on COX-2 (1 μg/ml) it was 84%; on COX-2 (10 μg/ml) it was 90%. In addition, the entries for the “Inhibition (%) COX-1” value at COX-1 (1 μg/ml) and on COX-1 (10 μg/ml) were 77% and 90%, respectively.
Consider `Cc1ccccc1-c1c(-c2ccc(S(C)(=O)=O)cc2)oc2ccccc2c1=O` [Example 23, 3-(2-Methylphenyl)-2-(4-(methylsulfonyl)phenyl)-4H-1-benzopyran-4-one], for which the inhibition at 0.1 µg/mL at COX-2 (0.1 μg/ml) was found to be 23%. Also, at COX-2 (1 μg/ml), the inhibition at 1 µg/mL stood at 84%. Besides, at COX-2 (10 μg/ml), the inhibition at 10 µg/mL came to 97%.
